Experimental data reported in patent US9593108B2, “Compounds and methods for antiviral treatment” (PTC Therapeutics, Inc., priority 2009, dated 2017).

What was measured:
[1] = test system: HCV replicon RNA (GenBank Accession No. AJ242654); test: HCV Replicon Assay (replicon RNA reduction and/or Fluc reporter signal); assay type: cell-based, Hepatitis C virus; settings: Hepatitis C virus, 72 h, replicon-containing cells cultured with test compound for up to 3 days
Outline: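 Bicistronic replicon-containing cells cultured with compound for up to 3 days, with interferon as positive control. Inhibition quantified by replicon RNA reduction and/or Fluc reporter signal; IC50 values generally derived from replicon RNA reduction.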

CCc1cc2c(C#N)c(-c3ccc(S(=O)(=O)N[C@@H](C)C(F)(F)F)cc3)n(C3CCC3)c2cn1 [Cpd 219, 4-(3-cyano-1-cyclobutyl-5-ethyl-1H-pyrrolo[2,3-c]pyridin-2-yl)-N-[(2S)-1,1,1-trifluoropropan-2-yl]benzenesulfonamide]
melting point: 200 to 203 °C | IC50 [1]: < 500 nM

CCc1cc2c(C#N)c(-c3ccc(NS(=O)(=O)C(C)C)cc3)n(C3CCC3)c2cn1 [Cpd 220, N-[4-(3-cyano-1-cyclobutyl-5-ethyl-1H-pyrrolo[2,3-c]pyridin-2-yl)phenyl]propane-2-sulfonamide]
melting point: 160 to 165 °C | IC50 [1]: < 500 nM

C[C@H](NS(=O)(=O)c1ccc(-c2c(C#N)c3cccnc3n2C2CCCC2)nc1)C(F)(F)F [Cpd 221, 6-(3-cyano-1-cyclopentyl-1H-pyrrolo[2,3-b]pyridin-2-yl)-N-[(2S)-1,1,1-trifluoropropan-2-yl]pyridine-3-sulfonamide]
melting point: 157 to 159 °C | IC50 [1]: < 500 nM

C[C@H](NS(=O)(=O)c1ccc(-c2c(C#N)c3cc(C4CC4)ncc3n2C2CCC2)nc1)C(F)(F)F [Cpd 223, 6-(3-cyano-1-cyclobutyl-5-cyclopropyl-1H-pyrrolo[2,3-c]pyridin-2-yl)-N-[(2S)-1,1,1-trifluoropropan-2-yl]pyridine-3-sulfonamide]
melting point: 200 to 205 °C | IC50 [1]: 500 to 2000 nM

C[C@H](NS(=O)(=O)c1ccc(-c2c(C#N)c3cc(C4CC4)ncc3n2C2CCC2)cc1)C(F)(F)F [Cpd 224, 4-(3-cyano-1-cyclobutyl-5-cyclopropyl-1H-pyrrolo[2,3-c]pyridin-2-yl)-N-[(2S)-1,1,1-trifluoropropan-2-yl]benzenesulfonamide]
melting point: 190 to 195 °C | IC50 [1]: < 500 nM

COc1cnc2c(c1)c(C(N)=O)c(-c1ccc(S(=O)(=O)N[C@@H](C)C(F)(F)F)cn1)n2C1CCC1 [Cpd 226, 1-cyclobutyl-5-methoxy-2-(5-{[(2S)-1,1,1-trifluoropropan-2-yl]sulfamoyl}pyridin-2-yl)-1H-pyrrolo[2,3-b]pyridine-3-carboxamide]
melting point: 233 to 235 °C | IC50 [1]: < 500 nM

C[C@H](NS(=O)(=O)c1ccc(-c2c(C#N)c3cc(C(F)(F)F)cnc3n2C2CCC2)nc1)C(F)(F)F [Cpd 227, 6-[3-cyano-1-cyclobutyl-5-(trifluoromethyl)-1H-pyrrolo[2,3-b]pyridin-2-yl]-N-[(2S)-1,1,1-trifluoropropan-2-yl]pyridine-3-sulfonamide]
melting point: 183 to 185 °C | IC50 [1]: < 500 nM

C[C@@H](NS(=O)(=O)c1ccc(-c2c(C#N)c3cc(C(F)(F)F)cnc3n2C2CCC2)nc1)C(F)(F)F [Cpd 228, 6-[3-cyano-1-cyclobutyl-5-(trifluoromethyl)-1H-pyrrolo[2,3-b]pyridin-2-yl]-N-[(2R)-1,1,1-trifluoropropan-2-yl]pyridine-3-sulfonamide]
melting point: 190 to 192 °C | IC50 [1]: < 500 nM

C[C@H](NS(=O)(=O)c1ccc(-c2c(C#N)c3cc(C(F)(F)F)cnc3n2C2CCCC2)nc1)C(F)(F)F [Cpd 229, 6-[3-cyano-1-cyclopentyl-5-(trifluoromethyl)-1H-pyrrolo[2,3-b]pyridin-2-yl]-N-[(2S)-1,1,1-trifluoropropan-2-yl]pyridine-3-sulfonamide]
melting point: 205 to 207 °C | IC50 [1]: < 500 nM

C[C@@H](NS(=O)(=O)c1ccc(-c2c(C#N)c3cc(C(F)(F)F)cnc3n2C2CCCC2)nc1)C(F)(F)F [Cpd 230, 6-[3-cyano-1-cyclopentyl-5-(trifluoromethyl)-1H-pyrrolo[2,3-b]pyridin-2-yl]-N-[(2R)-1,1,1-trifluoropropan-2-yl]pyridine-3-sulfonamide]
melting point: 208 to 210 °C | IC50 [1]: < 500 nM

CC[C@H](NS(=O)(=O)c1ccc(-c2c(C#N)c3cc(OC)cnc3n2C2CCC2)nc1)C(F)(F)F [Cpd 232, 6-(3-cyano-1-cyclobutyl-5-methoxy-1H-pyrrolo[2,3-b]pyridin-2-yl)-N-[(2S)-1,1,1-trifluorobutan-2-yl]pyridine-3-sulfonamide]
melting point: 186 to 191 °C | IC50 [1]: < 500 nM
